Patent US20230193265A1, “CUG REPEAT SEQUENCE BINDING AGENT” (OSAKA UNIVERSITY, priority 2020, published 2023)

What was measured:
[1] = test system: Atp2a1 (sarcoplasmic reticulum Ca2+/ATPase gene) Exon 22 splicing; assay: Improvement of Atp2a1 splicing abnormality in DM1 mouse model; assay type: in vivo, homozygous HSA^LR transgenic mice; conditions: 20 mg/kg/day, daily intraperitoneal administration for five days; rectus femoris (quadriceps)
Protocol: (§1) Gender- and age-matched homozygous HSA^LR transgenic mice of line 20b (FVB inbred background) (Science 2000, 289, 1769-1772) (<3 months old) were treated with JM642 at indicated doses (10 mg/kg/day and 20 mg/kg/day) for five days by daily intraperitoneal administration. After treatments, the rectus femoris (quadriceps) were obtained for splicing analysis. Total RNA extraction from the tissue, cDNA synthesis and polymerase chain reaction (PCR) were carried out according to Ann. Clin. Transl. Neurol. 2016, 3, 42-54. The PCR products were separated by agarose gel electrophoresis, and the gel was stained with GelRed (Biotium). The gel was imaged using a Typhoon laser fluorimager (GE Healthcare) and the gel bands were quantified using ImageQuant (GE Healthcare).
(§2) For normal mice and mice treated in the same manner as above except that JM642 was not administered, total RNA extraction, cDNA synthesis, PCR and electrophoresis of the PCR products were performed in the same manner as above.
Evaluation was performed in the same manner as in Example 3 except that the compound (DDAP) shown below synthesized in accordance with the method described in non-patent literature 3 was used in place of compound JM642.

[2] = test system: Clcn1 (muscle-specific chloride channel gene) Exon 7a splicing; assay: Improvement of Clcn1 splicing abnormality in DM1 mouse model; assay type: in vivo, homozygous HSA^LR transgenic mice; conditions: 20 mg/kg/day, daily intraperitoneal administration for five days; rectus femoris (quadriceps)
Protocol: as §1, §2
Evaluation was performed in the same manner as in Example 3 except that Clcn1 was studied in place of Atp2a1.
Evaluation was performed in the same manner as in Example 4 except that the compound (DDAP) shown above synthesized in accordance with the method described in non-patent literature 3 was used in place of compound JM642.

r(CUG)9 = assay: Surface plasmon resonance (SPR) binding to immobilized r(CUG)9 RNA
Protocol: A streptavidin-coated sensor chip (SA chip, GE Healthcare) was washed with HBS-EP^+ buffer (10 mM HEPES, pH 7.4, 0.15 M NaCl, 3 mM EDTA and 0.05% v/v Surfactant P20) for 6 minutes, and then activated with three consecutive 1-min injection of 30 μL of activation buffer (50 mM NaOH and 1 M NaCl).
5′-Biotinylated r(CUG)9 (Thermo Fisher Scientific Inc.) was diluted to 0.1 μM with HEPES buffer (10 mM HEPES and 500 mM NaCl) and flowed onto the sensor chip until immobilized response units (RU) reaching around 400 RU. The amount of r(CUG)9 immobilized on the surface of the sensor chip was at 401 RU.
Surface plasmon resonance was measured using BIAcore T200 SPR system (GE Healthcare).
r(CUG)9 used for the SPR assay has the sequence as shown below.
For single-cycle kinetic (SCK) analysis, the surface of the sensor chip was conditioned by 120 sec exposure of continuous flow of HBS-EP^+ buffer at a flow rate of 30 μL/min at 25° C. Compound JM608 was dissolved in HBS-EP^+ buffer at a concentration of 0.063 μM, 0.125 μM, 0.25 μM, 0.50 μM and 1.0 μM, and the resulting solutions were sequentially injected on the sensor surface for 60 seconds each at a flow rate of 30 μL/min per cycle.
The obtained SPR response curves were analyzed using BIAcore T200 evaluation software (version 2.0).
SPR measurement was performed in the same manner as in Example 1 except that compound JM642 was used in place of compound JM608 and that solutions of compound JM642 at concentrations of 6 nM, 13 nM, 25 nM, 50 nM and 100 nM were sequentially injected.
The resonance unit for the compound at a concentration of 25 nM in Example 1 was calculated from the measured value (1.9 RU) for the compound at 63 nM using the formula: 1.9 RU×(25 nM/63 nM).

Compound	inclusion rate of Exon 22 [1] [%]	skipping rate of Exon 7a [2] [%]	Resonance unit (RU) at concentration of 25 nM (r(CUG)9; 25 nM compound, r(CUG)9 immobilized at 401 RU, calculated from measured value at 63 nM: 1.9 RU×(25 nM/63 nM)) [RU]	Resonance unit, measured value at 63 nM (r(CUG)9; 63 nM compound, r(CUG)9 immobilized at 401 RU) [RU]	binding capacity to the CUG repeat sequence (r(CUG)9; SPR, FIGS. 1 and 2 and Table 2)
NCCCNc1nc(NC(=O)OCCCNC(=O)CCNCCC(=O)NCCCOC(=O)Nc2cc3c(-c4ccnc(N5CCNCC5)c4)cccc3c(NCCCN)n2)cc2c(-c3ccnc(N4CCNCC4)c3)cccc12 [JM642, ((3,3′-azanediylbis(propanoyl))bis(azanediyl))bis(propane-3,1-diyl)bis((1-((3-aminopropyl)amino)-5-(2-(piperazin-1-yl)pyridin-4-yl)isoquinolin-3-yl)carbamate)]	70	70	–	–	–
NCCCNc1nc(NC(=O)OCCCN)cc2c(-c3ccnc(N4CCNCC4)c3)cccc12 [JM608, 3-aminopropyl (1-((3-aminopropyl)amino)-5-(2-(piperazin-1-yl)pyridin-4-yl)isoquinolin-3-yl)carbamate]	–	–	0.8	1.9	observed
